Our source for the EC50 values is ChEMBL document CHEMBL4739717, “Methods of treating cartilage disorders through inhibition of clk and dyrk” (2020).

A short description of assay [1]: Inhibition of IL1-beta induced MMP3 expression levels in human chondrocytes assessed as MMP3 levels incubated for 2hrs followed by IL1-beta stimulation and measured after overnight incubation by LANCE assay. Type of assay: functional, cell-based. The conditions noted are these: Chondrocyte. (In general: Time-resolved FRET reads energy transfer from a long-lived donor to a nearby acceptor.)

Assay [2] is described as follows: Effect on Wnt signaling pathway in human SW480 cells harbouring TCF/LEF luciferase reporter gene and SP5-Luc reporter gene incubated for 36 to 48 hrs by luminescence assay. The class given is cell-based.
In assay [3] the target is Dual specificity tyrosine-phosphorylation-regulated kinase 1A (Homo sapiens, UniProt Q13627). The experiment in a line: Inhibition of recombinant DYRK1A (unknown origin) using Ser/Thr 18 peptide as substrate incubated for 1 hr in presence of ATP by FRET assay.
Assay [4] can be described thus: Induction of chondrogenesis in human MSC assessed as incubated for 6 days by rhodamine B and Nile red staining based imaging analysis. The conditions noted are these: bmmsc. The class given is functional.

As for `CN(C)C1CCN(c2cc(C(=O)Nc3cc4cc(-c5cnn(C)c5)ccc4cn3)ccn2)CC1`, in assay [1], the EC50 – broadly, the midpoint of the concentration-response curve – is 697 nM. Still for that read-out and setting: for `CN1CCC2(CC1)CN(c1cc(C(=O)Nc3cc4cc(-c5cnn(C)c5)ccc4cn3)ccn1)C2` the value was 3000 nM.

For `Cc1cc(C(=O)Nc2cc3cc(-c4cnn(C)c4)ccc3cn2)cc(N2CCN(C)CC2)n1`, in assay [1], the EC50 stood at 3000 nM. `CC(C)CC(=O)Nc1cncc(-c2cc3c(-c4cc5c(-c6cc(F)cc(CNS(C)(=O)=O)c6)cncc5[nH]4)n[nH]c3cn2)c1`: the EC50 was above 10000 nM in assay [2] and 99 nM in assay [3].

`CN1CCN(c2cc(C(=O)Nc3cc4cc(-c5cnn(C)c5N)ccc4cn3)ccn2)CC1`: the EC50 in assay [1] came out at 11.5 nM. `CC(C)CC(=O)Nc1cncc(-c2cnc3[nH]nc(-c4cc5c(-c6cc(F)cc(CNS(C)(=O)=O)c6)nccc5[nH]4)c3c2)c1`: the EC50 was determined as 1510 nM in assay [2], 300 nM in assay [4] and 19 nM in assay [3]. `O=C(Nc1cc2cc(-c3cncc(NCC4(F)CNC4)n3)ncc2cn1)C1CC1` had an EC50 in assay [2] of 383 nM. As for `CCNCc1cncc(-c2ccc3[nH]nc(-c4cc5cnccc5[nH]4)c3c2)c1`, the half-maximal effective concentration (EC50) in assay [2] came to 1040 nM; in assay [4], 10 nM; in assay [3] it was 3 nM. In the case of `O=C(Nc1cc2cc(-c3cncc(NC4CCNCC4)n3)ccc2cn1)C1CC(F)(F)C1`, the EC50 in assay [2] was found to be 381 nM.

On to `CC(C)(C)C(=O)Nc1cncc(-c2ccc3[nH]nc(-c4nc5c(-c6ccc(F)cc6)cncc5[nH]4)c3c2)c1`, for which the EC50 was 4 nM in assay [2], 100 nM in assay [4] and 55 nM in assay [3]. In the case of `CN1CCN(c2cc(C(=O)Nc3cc4cc(-c5cnn(C)c5)c(F)cc4cn3)ccn2)CC1`, the EC50 in assay [1] was found to be 0.4 nM. For `CN1CCc2cc(C(=O)Nc3cc4cc(-c5cn(C)nn5)ccc4cn3)ccc2C1`, the EC50 in assay [1] stood at 3000 nM.

Take `CS(=O)(=O)NCc1cc(F)cc(-c2nccc3[nH]c(-c4n[nH]c5ncc(-c6cncc(NC(=O)C7CCC7)c6)cc45)cc23)c1`: the results for the EC50 in assay [2], in assay [4] and in assay [3] were 3640 nM, 300 nM and 16 nM, respectively. In assay [2], `CC(C)Nc1cncc(-c2ccc3cnc(NC(=O)C4CCN(CCF)CC4)cc3c2)n1` gave an EC50 of 178 nM.

For the compound `Cn1ncc(-c2ccc3cnc(NC(=O)c4ccc(OC(F)F)cc4)cc3c2)c1CO`, the EC50 in assay [1] came to 1370 nM. The same measure, in the same setting: for `CN1CCN(c2cc(C(=O)Nc3cc4c(Cl)c(-c5cnn(C)c5)ccc4cn3)ccn2)CC1` the value was 898 nM. `Fc1cccc(-c2cncc3[nH]c(-c4n[nH]cc4C#Cc4cncc(OC5CCNCC5)c4)nc23)c1`: the EC50 in assay [2] came to 4640 nM; in assay [3], 56 nM. The like results for `CN1CCN(c2ccc(NC(=O)c3n[nH]c4ccc(-c5cncc(NC(=O)C6CC6)c5)cc34)cn2)CC1` were, in that order, 80 nM and 1 nM. As to `CCNCc1cncc(-c2cnc3[nH]nc(-c4cc5c(-c6cc(F)cc(CNS(C)(=O)=O)c6)nccc5[nH]4)c3c2)c1`, the figures for the EC50 in assay [2], in assay [4] and in assay [3] were above 10000 nM, 300 nM and 30 nM, respectively. On to `CN1CCN(Cc2ccc(NC(=O)c3n[nH]c4ccc(-c5cccnc5)cc34)cn2)CC1`, for which the figures for the EC50 in assay [2] and in assay [3] were 37 nM and 1 nM, respectively. Regarding `COc1cncc(-c2cc3c(-c4nc5c(-c6cccc(F)c6)cncc5[nH]4)n[nH]c3cn2)c1`, the EC50 in assay [2] came to 31.3 nM; in assay [4], 300 nM; in assay [3], 26 nM. With `CN(C)Cc1cncc(NC(=O)c2n[nH]c3ccc(-c4cncc(CN5CCCC5)c4)cc23)c1`, the results for the EC50 in assay [2] and in assay [3] were 330 nM and 2 nM, respectively.

On to `CN(C)C(=O)Nc1cncc(-c2ccc3[nH]nc(C(=O)Nc4cccnc4)c3c2)c1`, for which the results for the half-maximal effective concentration (EC50) in assay [2] and in assay [3] were 176 nM and 1 nM, respectively. As to `Cc1n[nH]c2ccc(-c3cncc(N[C@H]4CC[C@H](O)CC4)n3)cc12`, the EC50 was 95 nM in assay [2] and 1 nM in assay [3].

For the compound `CC(C)CC(=O)Nc1cncc(-c2ccc3[nH]nc(-c4nc5c(N6CCN(C)CC6)cccc5[nH]4)c3c2)c1`, the EC50 came to 268 nM in assay [2] and 5 nM in assay [3]. The like results for `CNc1nc(NCc2ncccn2)c2c(-c3ccc4ncccc4c3)c[nH]c2n1` were, in that order, 73.3 nM and 7 nM. `O=C(Nc1cccnc1)c1n[nH]c2ccc(-c3cncc(NC(=O)N4CCOCC4)c3)cc12`: the EC50 in assay [2] worked out at 1250 nM; in assay [3], 2 nM.

For the compound `CN(C)CCOc1cncc(-c2cnc3[nH]nc(-c4nc5c(-c6cccc(F)c6)nccc5[nH]4)c3c2)c1`, the EC50 came out at 253 nM in assay [2] and 5 nM in assay [3].

Consider `CN(C)Cc1cncc(-c2cnc3[nH]nc(-c4nc5c(-c6ccsc6)cccc5[nH]4)c3c2)c1`, for which the EC50 in assay [2] stood at 32 nM; in assay [4], 300 nM; in assay [3] it was 83 nM. As to `O=C(Nc1ccc(N2CCC(O)CC2)nc1)c1n[nH]c2ccc(-c3cncc(CN4CCCCC4)c3)cc12`, the results for the EC50 in assay [2] and in assay [3] were 49 nM and 1 nM, respectively. On to `O=C(Nc1cnccc1NC(=O)C1CC1)c1n[nH]c2ccc(-c3cccnc3)cc12`, for which the EC50 in assay [2] amounted to 68 nM; in assay [3] it was 6 nM. Consider `O=C(Nc1cnccn1)c1n[nH]c2ccc(-c3cncc(CN4CCCCC4)c3)cc12`, for which the EC50 was found to be 289 nM in assay [2] and 1 nM in assay [3].

As to `Cc1ncc(NC(=O)c2n[nH]c3ccc(-c4cnc(C)n4C)cc23)s1`, the figures for the EC50 in assay [2] and in assay [3] were 335 nM and 4 nM, respectively. The like results for `Nc1cncc(-c2cnc3[nH]nc(-c4cc5c(-c6ccncc6)cncc5[nH]4)c3c2)c1` were, in that order, above 10000 nM and 3 nM.

As for `CN(C)CCN(C)c1ccc(NC(=O)c2n[nH]c3ccc(-c4cncc(CN5CCCCC5)c4)cc23)cn1`, the figures for the EC50 in assay [2] and in assay [3] were 65 nM and 1 nM, respectively. Turning to `O=C(Nc1ccnnc1)c1n[nH]c2ccc(-c3cccnc3)cc12`, the EC50 is 106 nM in assay [2] and 1 nM in assay [3].

In assay [2], `CN1CCC(n2cc(C(=O)Nc3cc4cc(-c5cnn(C)c5)ccc4cn3)cn2)CC1` had a concentration for a half-maximal effect (EC50) of 14 nM. With `CS(=O)(=O)NCc1cc(F)cc(-c2nccc3[nH]c(-c4n[nH]c5ncc(-c6cncc(OCc7ccccc7)c6)cc45)cc23)c1`, the EC50 came out at 3990 nM in assay [2] and 97 nM in assay [3]. The like results for `O=C(Nc1ccnnc1)c1n[nH]c2ccc(-c3cncc(CN4CCCCC4)c3)cc12` were, in that order, 40 nM and 1 nM.

Turning to `CC(C)CC(=O)Nc1cncc(-c2cnc3[nH]nc(-c4cc5c(-c6cc(F)cc(CNS(C)(=O)=O)c6)cncc5[nH]4)c3c2)c1`, the EC50 worked out at 2510 nM in assay [2] and 16 nM in assay [3].

Regarding `CCCC(=O)Nc1cncc(-c2cc3c(-c4nc5c(-c6cccc(F)c6)nccc5[nH]4)n[nH]c3cn2)c1`, the results for the EC50 in assay [2], in assay [4] and in assay [3] were 18.8 nM, 10 nM and 53 nM, respectively. For `O=C(Nc1ccc2c(c1)OCCO2)c1n[nH]c2ccc(-c3cncc(CN4CCCCC4)c3)cc12`, the values for the EC50 in assay [2] and in assay [3] were 125 nM and 3 nM, respectively.

`O=C(Nc1ccc(-c2ccccc2)nc1)c1n[nH]c2ccc(-c3cncc(CN4CCCCC4)c3)cc12`: the half-maximal effective concentration (EC50) was found to be 101 nM in assay [2] and 7 nM in assay [3]. With `Cc1cc2[nH]nc(C(=O)Nc3ccc(CN4CCCC4)cc3)c2cc1-c1cccnc1`, the EC50 in assay [2] amounted to 1090 nM. On to `O=C(Nc1cncc(-c2ccc3[nH]nc(-c4cc5c(-c6cccnc6)nccc5[nH]4)c3c2)c1)c1ccccc1`, for which the EC50 is 421 nM in assay [2] and 19 nM in assay [3].
